Measurements published in ChEMBL document CHEMBL6182916, “Unexpected Discovery of a Novel Triphenylphosphonium Alkylalcohol That Triggers Cancer Cell Death via Mitophagy and Ferroptosis” (J Med Chem, 2025).
Active and inactive are the calls of the source. No cut-off for these calls is given here.

Columns and labels:
NCI-H1650 = assay: Antiproliferative activity against human NCI-H1650 cells assessed as inhibition of cell growth measured after 72 hrs by MTT assay; format: functional, cell-based; settings: NCI-H1650, 72 h
Mitochondrial membrane [1] = assay: Induction of mitochondrial membrane depolarization in human HCC827 cells assessed as decrease in red fluorescence at 0.125 to 0.5 uM incubated for 4 hrs by JC-1 staining based confocal microscopy analysis; format: cell membranes; settings: dose 0.125-0.5 µM
HCC827 [2] = assay: Induction of apoptosis in human HCC827 cells assessed as viable cells at 0.5 uM measured after 48 hrs by annexin V and PI staining based flow cytometry analysis (reference value: 96.74%); format: functional; settings: read-out: Activity
HCC827 [3] = assay: Effect on UQCRC2 expression in human HCC827 cells at 0.25 to 0.5 uM incubated for 24 hrs by Western blot analysis; format: functional, cell-based; settings: dose 0.25-0.5 µM
HCC827 [4] = assay: Induction of mitochondrial dysfunction in human HCC827 cells assessed as appearance of vacuoles with damaged mitochondria at 1 uM after 24 hrs by TEM analysis; format: functional, cell-based
Mitochondrial membrane [5] = assay: Induction of mitochondrial membrane depolarization in human NCI-H1650 cells assessed as increase in JC-1 monomer ratio at 0.25 to 0.5 uM incubated for 4 hrs by JC-1 staining based confocal microscopy analysis; format: cell membranes; settings: dose 0.25-0.5 µM
HCC827 [6] = assay: Induction of cell cycle arrest in human HCC827 cells assessed as accumulation of cells at G1 phase incubated for 24 hrs by PI staining based flow cytometry analysis; format: functional; settings: dose 0.1-0.4 µM
HCC827 [7] = assay: Downregulation of HK-2 expression level in human HCC827 cells incubated for 24 hrs by Western blot analysis; format: functional, cell-based; settings: dose 0.25-0.5 µM
HCC827 [8] = assay: Induction of apoptosis in human HCC827 cells assessed as necrotic cells at 1 uM measured after 24 hrs by annexin V and PI staining based flow cytometry analysis (Rvb =0.84%); format: functional
HEK-293T [9] = assay: Inhibition of colony formation in HEK293T cells at 0.05 to 0.1 uM incubated for 72 hrs by crystal violet staining based analysis; format: functional, cell-based; settings: Homo sapiens, dose 0.05-0.1 µM
HCC827 [10] = assay: Effect on NDUFB8 expression in human HCC827 cells at 0.25 to 0.5 uM incubated for 24 hrs by Western blot analysis; format: functional, cell-based; settings: dose 0.25-0.5 µM
HCT-116 = assay: Antiproliferative activity against human HCT-116 cells assessed as inhibition of cell growth measured after 72 hrs by MTT assay; format: functional, cell-based; settings: HCT-116, 72 h
[11] = Toxicity in female BALB/c mouse assessed as effect on body weight at 30 mg/kg, ip measured for 7 days; format: organism-based; settings: in vivo, 168 h, time 7 day
Mitochondrial membrane [12] = assay: Induction of mitochondrial membrane depolarization in human BEAS-2B cells assessed as JC-1 monomer ratio by measuring increase green fluorescence at 0.25 uM incubated for 4 hrs by JC-1 staining based confocal microscopy analysis; format: cell membranes
HCC827 [13] = assay: Induction of apoptosis in human HCC827 cells assessed as necrotic cells at 1 uM measured after 48 hrs by annexin V and PI staining based flow cytometry analysis (reference value: 1.18%); format: functional
Mitochondrial membrane [14] = assay: Induction of mitochondrial membrane depolarization in human HCC827 cells assessed as increase green fluorescence incubated for 4 hrs by JC-1 staining based confocal microscopy analysis; format: cell membranes; settings: dose 0.125-0.5 µM
[15] = Toxicity in male Kunming mouse assessed as change in body weight at 70 mg/kg, ip measured every two days for 7 days; format: organism-based; settings: in vivo, 168 h, time 7 day
[16] = Toxicity in female nude mouse assessed as drug tolerance at 5 to 10 mg/kg, ip measured after 14 days; format: organism-based; settings: in vivo, 336 h, dose 5-10 mg/kg, time 14 day
HCC827 [17] = assay: Effect on COX1 expression in human HCC827 cells at 0.25 to 0.5 uM; format: functional, cell-based; settings: dose 0.25-0.5 µM
NCI-H1975 = assay: Antiproliferative activity against human NCI-H1975 cells assessed as inhibition of cell growth measured after 72 hrs by MTT assay; format: functional, cell-based; settings: NCI-H1975, 72 h
HCC827 [18] = assay: Upregulation of parkin phosphorylation level in human HCC827 cells at 0.25 to 0.5 uM measured after 24 hrs; format: functional, cell-based; settings: dose 0.25-0.5 µM
HEK-293T [19] = assay: Downregulation of TIMM23 expression level in human HEK293T cells harbouring PINK knockout at 0.25 to 0.5 uM; format: functional, cell-based; settings: dose 0.25-0.5 µM
HCC827 [20] = assay: Downregulation of HK-2 expression level in human HCC827 cells 0.5 uM incubated for 3 to 24 hrs in presence of BFA by Western blot analysis; format: functional, cell-based; settings: time 3-24 hrs
SK-LU-1 = assay: Antiproliferative activity against human SK-LU-1 cells assessed as inhibition of cell growth measured after 72 hrs by MTT assay; format: functional, cell-based; settings: SK-LU-1, 72 h
[21] = Toxicity in female BALB/c mouse assessed as histopathological changes in heart at 30 mg/kg, ip measured for 7 days by H and E staining based analysis; format: organism-based; settings: in vivo, 168 h, time 7 day
HCC827 [22] = assay: Induction of apoptosis in human HCC827 cells assessed as late apoptotic cells at 1 uM measured after 24 hrs by annexin V and PI staining based flow cytometry analysis (reference value: 2.18%); format: functional
HCC827 [23] = assay: Induction of apoptosis in human HCC827 cells assessed as early apoptotic cells at 1 uM measured after 48 hrs by annexin V and PI staining based flow cytometry analysis (reference value: 0.70%); format: functional
HCC827 [24] = assay: Induction of mitochondrial dysfunction in human HCC827 cells assessed as appearance of disrupted cristae at 1 uM after 24 hrs by TEM analysis; format: functional, cell-based
HCC827 [25] = assay: Antimetastatic activity against human HCC827 cells xenografted in female nude mouse model assessed as increase in cadherin level at 5 to 10 mg/kg, ip by Western blot analysis; format: functional, organism-based; settings: dose 5-10 mg/kg
HCC827 [26] = assay: Induction of mitochondrial dysfunction in human HCC827 cells assessed as suppression of maximal oxygen consumption rate incubated for 4 hrs by Seahorse XF96 extracellular flux analyzer; format: functional, cell-based; settings: dose 0.125-5 µM
[27] = Antiproliferative activity against human HUVEC cells assessed as inhibition of cell growth measured after 72 hrs by MTT assay; format: toxicity, cell-based
HEK-293T [28] = assay: Downregulation of […] expression level in human HEK293T cells; format: functional, cell-based; settings: dose 0.25-0.5 µM
HCC827 [29] = assay: Induction of apoptosis in human HCC827 cells assessed as necrotic cells at 1 uM measured after 48 hrs by annexin V and PI staining based flow cytometry analysis (Rvb =0.84%); format: functional
Mitochondrial membrane [30] = assay: Induction of mitochondrial membrane depolarization in human HCC827 cells assessed as increase in J-monomer ratio at 0.125 to 0.5 uM incubated for 4 hrs by JC-1 staining based flow cytometric analysis; format: cell membranes; settings: dose 0.125-0.5 µM
HCC827 [31] = assay: Induction of cell cycle arrest in human HCC827 cells assessed as accumulation of cells at G1 phase at 0.4 uM incubated for 24 hrs by PI staining based flow cytometry analysis (reference value: 66.44%); format: functional
MCF7 = assay: Antiproliferative activity against human MCF7 cells assessed as inhibition of cell growth measured after 72 hrs by MTT assay; format: functional, cell-based; settings: MCF7, 72 h
HCC827 [32] = assay: Downregulation of TIMM23 expression level in human HCC827 cells at 0.5 uM by Western blot analysis; format: functional, cell-based; settings: time 3-24 hrs
HCC827 [33] = assay: Induction of ferroptosis in human HCC827 cells assessed as increase in lipid peroxidation level incubated for 24 hrs by absorbance based analysis; format: functional, cell-based; settings: dose 0.25-0.5 µM

## Cc1ccc([P+](CCCCCCCCCCO)(c2ccc(C)cc2)c2ccc(C)cc2)cc1.[Br-]
NCI-H1650
  IC50: 470 nM
Mitochondrial membrane [1]
  Activity: Active
HCC827 [2]
  viability at 0.5 µM: 88.5%
HCC827 [3]
  Activity: Active
HCC827 [4]
  Activity: Active
Mitochondrial membrane [5]
  Activity: Active
HCC827 [6]
  Activity: Dose-dependent-effect
HCC827 [7]
  Activity: Dose-dependent-effect
HCC827 [8]
  Activity: 1.47%
HEK-293T [9]
  inhibition: Minimal_effect
HCC827 [10]
  Activity: Active
HCT-116
  IC50: 620 nM
[11]
  Activity: Non-toxic
Mitochondrial membrane [12]
  Activity: inactive
HCC827 [13]
  Activity: 2.19%
Mitochondrial membrane [14]
  Activity: Dose-dependent-effect
[15]
  Activity: Toxic
[16]
  Activity: Non-toxic
HCC827 [17]
  Activity: Active
NCI-H1975
  IC50: 200 nM
HCC827 [18]
  Activity: Active
HEK-293T [19]
  Activity: inactive
HCC827 [20]
  Activity: inactive
SK-LU-1
  IC50: 230 nM
[21]
  Activity: Non-toxic
HCC827 [22]
  Activity: 3.84%
HCC827 [23]
  Activity: 5.85%
HCC827 [24]
  Activity: Active
HCC827 [25]
  Activity: Active
HCC827 [26]
  Activity: Dose-dependent-effect
[27]
  IC50 at 72 h: 1800 nM
HEK-293T [28]
  Activity: Dose-dependent-effect
HCC827 [29]
  Activity: 2.02%
Mitochondrial membrane [30]
  Activity: Active
HCC827 [31]
  Activity: 85.66%
MCF7
  IC50: 160 nM
HCC827 [32]
  Activity: Time-dependent-effect
HCC827 [33]
  Activity: Dose-dependent-effect
